Reference: patent US11591328B2 (XIAMEN BIOTIME BIOTECHNOLOGY CO., LTD., priority 2018, dated 2023)

Key:
FLT-3 = FLT-3 (Homo sapiens (Human), UniProt P36888); test: FLT-3 kinase activity test (Caliper mobility shift assay); format: biochemical
Protocol: (§1) Caliper mobility shift assay was used to determine the kinase activities of c-Kit, PDGFRα, PDGFRβ, and FLT-3.
(§2) The final concentration of the kinase and its corresponding substrate (ATP and peptide substrate P2 or P22) during the experiment is as follows:
(§3) Add 5 μL of compound (10% DMSO) at 5 times the final concentration of the reaction to a 384-well plate. Add 10 μL of 2.5×enzyme solution and incubate for 10 minutes at room temperature, then add 10 μL of 2.5×substrate (ATP and peptide substrate, P2 or P22). After incubating at 28° C. for 60 minutes, add 25 μL stop solution to stop the reaction. Read conversion rate data on Caliper EZ Reader II (Caliper Life Sciences). Convert the conversion rate into inhibition rate data (% inhibition rate=(max−sample conversion rate)/(max−min)×100). Where max refers to the conversion rate of the DMSO control, and min refers to the conversion rate of the control without enzyme activity. Draw a curve with compound concentration and inhibition rate on the abscissa and ordinate, use XLFit excel add-in version 4.3.1 software to fit the curve and calculate IC50.

c-Kit = c-Kit (Homo sapiens (Human), UniProt P10721); test: c-Kit kinase activity test (Caliper mobility shift assay); format: biochemical
Protocol: as §1, §2, §3

[1] = Pharmacokinetic evaluation in CD-1 mice, gavage; format: in vivo; conditions: 10 mg/kg, plasma; for bioavailability / Cmax / half-life: mouse, po; for half-life: read-out: T½ (converted)
Source text: Using mice as the test animals, the LC/MS/MS method was used to determine that the mice were intragastrically administered the compound of Example 1, the compound of Example 2, the compound of Example 3, the compound of Example 4, the compound of Example 10, and the compound of Example 14. Compound, the concentration of the drug in the plasma at different times after the compound of Example 26. Study the pharmacokinetic behavior of the compound of the present invention in mice and evaluate its pharmacokinetic characteristics.
The test animals were CD-1 mice, purchased from Shanghai Slack Laboratory Animal Co., Ltd.
Weigh a certain amount of drug, add 5% volume of DMSO or DMAc, 5% volume of PEG400 and 90% volume of normal saline to prepare 1.0 mg/mL colorless, clear and transparent liquid or uniformly dispersed suspension.
CD-1 mice were fasted overnight and then administered by gavage. The dosage was 10 mg/kg and the dosage was 10 mL/kg.
Gavage the mice before and after administration at 0.25, 0.5, 1.0, 2.0, 4.0, 6.0, 8.0, 24.0 hours to collect 0.1 mL of blood, place it in a K2-EDTA anticoagulation tube, and centrifuge at 3500 rpm for 10 minutes. Plasma, stored at −20° C.
To determine the content of the test compound in mouse plasma after gavage of different concentrations of drugs: take 20 uL of mouse plasma at each moment after administration, add propranolol and tolbutamide (each 100 ng/mL) 200 uL of acetonitrile solution, vortex for 5 minutes, centrifuge for 12 minutes (4000 rpm), and take 5 uL of the supernatant from the plasma sample for LC/MS/MS analysis.

PDGFRβ = PDGFRβ (Homo sapiens (Human), UniProt P09619); test: PDGFRβ kinase activity test (Caliper mobility shift assay); format: biochemical
Protocol: as §1, §2, §3

CSF1R = CSF1R (Homo sapiens (Human), UniProt P07333); test: CSF1R kinase activity test (HTRF); format: biochemical; conditions: ATP 8 μM
Protocol: In a 384-well plate, add 10 nL of the test compound to each well with the Echo 550 sample loading device. […] Use this buffer to adjust the concentration of CSF1R to 0.02 ng/ul. Add 5 μL of buffer containing CSF1R to the 384-well plate after centrifugation at 1000 g for 30 seconds and incubate at room temperature for 10 minutes. […] The inhibition rate of each point is obtained by the following formula: […]
Wherein, Ratiopositive: the experimental positive control None; Ratiovehicle: is the test value of 0.1% DMSO. With the compound concentration and inhibition rate on the abscissa and ordinate, the curve was drawn, and the curve was fitted with Graphpad 5.0 software and the IC50 was calculated.

FMS = FMS (Homo sapiens (Human), UniProt P07333)
FMS, sequence (P07333 20-972): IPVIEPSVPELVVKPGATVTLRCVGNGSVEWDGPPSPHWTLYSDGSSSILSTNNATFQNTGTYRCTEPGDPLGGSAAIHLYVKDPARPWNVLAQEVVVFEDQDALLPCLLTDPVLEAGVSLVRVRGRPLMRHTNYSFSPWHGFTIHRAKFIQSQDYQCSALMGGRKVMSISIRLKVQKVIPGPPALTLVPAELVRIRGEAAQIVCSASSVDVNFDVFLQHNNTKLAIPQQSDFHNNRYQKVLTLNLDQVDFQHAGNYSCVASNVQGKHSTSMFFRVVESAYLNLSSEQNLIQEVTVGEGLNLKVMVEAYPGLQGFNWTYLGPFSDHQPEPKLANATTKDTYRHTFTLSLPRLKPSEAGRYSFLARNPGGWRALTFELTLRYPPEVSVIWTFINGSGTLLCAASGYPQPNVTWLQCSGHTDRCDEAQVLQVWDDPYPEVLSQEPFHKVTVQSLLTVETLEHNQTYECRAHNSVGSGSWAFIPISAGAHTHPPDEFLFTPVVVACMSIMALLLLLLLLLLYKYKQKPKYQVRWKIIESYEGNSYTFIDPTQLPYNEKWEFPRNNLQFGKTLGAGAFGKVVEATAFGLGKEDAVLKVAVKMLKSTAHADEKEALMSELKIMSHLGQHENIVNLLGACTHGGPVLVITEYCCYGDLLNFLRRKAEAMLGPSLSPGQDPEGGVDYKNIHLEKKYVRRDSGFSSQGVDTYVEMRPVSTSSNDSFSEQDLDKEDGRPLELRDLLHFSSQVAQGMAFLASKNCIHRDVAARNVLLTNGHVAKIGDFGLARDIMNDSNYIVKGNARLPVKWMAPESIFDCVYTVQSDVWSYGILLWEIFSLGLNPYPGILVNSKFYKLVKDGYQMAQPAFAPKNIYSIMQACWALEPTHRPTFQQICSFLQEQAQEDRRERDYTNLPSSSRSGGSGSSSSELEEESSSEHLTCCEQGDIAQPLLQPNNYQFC
Protocol: Place the culture plate in a cell incubator and incubate for 4 hours. […] Add the diluted recombinant human MCSF to a 24-well plate at 100 μL per well, mix quickly and incubate in an incubator for 4 minutes.

FLT-3, sequence (P36888 27-993): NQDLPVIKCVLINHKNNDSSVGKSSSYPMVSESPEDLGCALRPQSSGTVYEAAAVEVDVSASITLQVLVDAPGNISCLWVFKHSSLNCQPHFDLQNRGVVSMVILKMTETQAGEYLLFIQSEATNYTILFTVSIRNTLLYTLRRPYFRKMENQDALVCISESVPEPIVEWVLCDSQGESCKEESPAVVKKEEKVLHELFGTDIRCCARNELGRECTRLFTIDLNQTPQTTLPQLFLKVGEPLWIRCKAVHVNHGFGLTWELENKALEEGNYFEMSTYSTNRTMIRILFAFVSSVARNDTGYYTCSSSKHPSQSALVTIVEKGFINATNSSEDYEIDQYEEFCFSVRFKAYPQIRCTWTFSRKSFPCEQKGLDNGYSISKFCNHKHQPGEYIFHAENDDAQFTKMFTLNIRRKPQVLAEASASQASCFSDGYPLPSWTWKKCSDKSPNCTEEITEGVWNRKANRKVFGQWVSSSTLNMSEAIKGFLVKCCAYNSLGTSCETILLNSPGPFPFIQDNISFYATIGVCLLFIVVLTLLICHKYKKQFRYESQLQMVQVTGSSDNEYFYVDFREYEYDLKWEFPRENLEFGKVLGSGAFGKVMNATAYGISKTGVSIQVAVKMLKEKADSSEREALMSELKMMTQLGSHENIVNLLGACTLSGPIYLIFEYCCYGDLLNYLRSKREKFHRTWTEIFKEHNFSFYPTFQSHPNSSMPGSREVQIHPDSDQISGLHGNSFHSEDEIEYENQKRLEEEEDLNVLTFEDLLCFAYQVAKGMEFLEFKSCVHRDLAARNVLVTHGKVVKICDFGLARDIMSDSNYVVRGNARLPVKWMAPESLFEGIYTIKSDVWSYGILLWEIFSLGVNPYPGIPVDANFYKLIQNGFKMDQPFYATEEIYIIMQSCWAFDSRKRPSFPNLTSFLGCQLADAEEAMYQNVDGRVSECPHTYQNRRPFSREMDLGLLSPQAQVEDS
PDGFRβ, sequence (P09619 33-1106): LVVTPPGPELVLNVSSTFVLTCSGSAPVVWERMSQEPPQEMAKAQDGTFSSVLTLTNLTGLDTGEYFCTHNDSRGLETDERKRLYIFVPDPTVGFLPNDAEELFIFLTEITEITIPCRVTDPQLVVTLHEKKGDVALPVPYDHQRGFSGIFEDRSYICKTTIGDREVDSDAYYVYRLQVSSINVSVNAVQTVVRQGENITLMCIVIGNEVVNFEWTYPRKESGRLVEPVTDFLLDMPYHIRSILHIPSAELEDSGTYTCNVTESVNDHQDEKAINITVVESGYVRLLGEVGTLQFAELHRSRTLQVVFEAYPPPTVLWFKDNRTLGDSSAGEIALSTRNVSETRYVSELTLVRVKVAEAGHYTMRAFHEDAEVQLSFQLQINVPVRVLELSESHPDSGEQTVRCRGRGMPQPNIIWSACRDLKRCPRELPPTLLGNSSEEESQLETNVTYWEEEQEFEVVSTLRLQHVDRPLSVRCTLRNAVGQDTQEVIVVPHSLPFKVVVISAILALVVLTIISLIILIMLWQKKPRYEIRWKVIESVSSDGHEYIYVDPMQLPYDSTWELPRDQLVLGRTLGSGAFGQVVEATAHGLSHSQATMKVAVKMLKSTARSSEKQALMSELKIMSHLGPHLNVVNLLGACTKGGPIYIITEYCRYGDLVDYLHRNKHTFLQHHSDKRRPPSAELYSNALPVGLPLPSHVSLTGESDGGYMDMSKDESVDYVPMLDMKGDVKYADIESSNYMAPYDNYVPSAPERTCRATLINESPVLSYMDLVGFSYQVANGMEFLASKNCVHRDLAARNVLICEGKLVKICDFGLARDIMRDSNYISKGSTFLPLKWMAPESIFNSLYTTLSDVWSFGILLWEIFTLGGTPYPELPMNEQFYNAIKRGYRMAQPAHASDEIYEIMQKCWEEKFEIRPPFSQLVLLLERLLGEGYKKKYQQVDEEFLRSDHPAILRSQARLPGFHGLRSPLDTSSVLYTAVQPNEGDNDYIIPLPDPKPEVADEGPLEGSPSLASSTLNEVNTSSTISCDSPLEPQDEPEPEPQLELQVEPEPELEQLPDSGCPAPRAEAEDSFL
CSF1R, sequence (P07333 20-972, species assumed): as the sequence (P07333 20-972) above
c-Kit, sequence (P10721 26-976): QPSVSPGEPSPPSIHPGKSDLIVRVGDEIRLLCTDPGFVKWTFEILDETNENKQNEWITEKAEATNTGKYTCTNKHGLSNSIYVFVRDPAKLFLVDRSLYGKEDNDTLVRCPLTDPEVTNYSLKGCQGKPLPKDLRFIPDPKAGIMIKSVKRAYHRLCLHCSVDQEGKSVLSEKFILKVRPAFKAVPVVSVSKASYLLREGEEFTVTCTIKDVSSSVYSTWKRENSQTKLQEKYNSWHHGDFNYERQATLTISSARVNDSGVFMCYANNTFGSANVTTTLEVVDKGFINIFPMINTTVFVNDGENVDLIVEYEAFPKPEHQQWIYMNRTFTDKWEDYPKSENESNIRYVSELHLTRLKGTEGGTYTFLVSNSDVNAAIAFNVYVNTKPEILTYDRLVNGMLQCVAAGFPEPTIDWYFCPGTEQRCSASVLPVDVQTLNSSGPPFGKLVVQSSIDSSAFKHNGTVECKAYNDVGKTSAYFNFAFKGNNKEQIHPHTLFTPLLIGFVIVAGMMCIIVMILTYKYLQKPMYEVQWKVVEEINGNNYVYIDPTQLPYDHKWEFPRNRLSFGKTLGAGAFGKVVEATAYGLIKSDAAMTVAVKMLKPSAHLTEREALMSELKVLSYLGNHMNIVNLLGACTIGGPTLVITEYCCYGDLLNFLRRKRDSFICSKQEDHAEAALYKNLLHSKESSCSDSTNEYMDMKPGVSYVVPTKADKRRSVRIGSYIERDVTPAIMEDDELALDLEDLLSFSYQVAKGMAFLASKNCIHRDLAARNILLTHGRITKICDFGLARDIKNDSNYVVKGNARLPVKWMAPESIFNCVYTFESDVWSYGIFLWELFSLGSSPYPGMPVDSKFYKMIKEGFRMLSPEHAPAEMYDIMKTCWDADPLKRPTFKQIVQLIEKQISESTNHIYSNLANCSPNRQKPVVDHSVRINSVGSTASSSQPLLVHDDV

| SMILES | IC50 (c-Kit) | IC50 (PDGFRβ) | IC50 (CSF1R) | further results |
| --- | --- | --- | --- | --- |
| Cn1cc(-c2cc(Oc3ccc(NC(=O)N4CCC5(CCC5)C4=O)nc3)ccn2)cn1 [Compound 1] | 3.5 nM | 2860 nM | – | IC50 (FLT-3): > 10000 nM; AUC [1]: 26600 ng·h/mL; bioavailability [1]: 100%; Cmax [1]: 3390 ng/mL; half-life [1]: 2.73 h |
| Cn1cc(-c2cc(Oc3ccc(NC(=O)N4CCC5(CCCCC5)C4=O)nc3)ccn2)cn1 [Compound 2] | 5.4 nM | 1580 nM | 6.2 nM | AUC [1]: 6100 ng·h/mL; bioavailability [1]: 71.5%; Cmax [1]: 860 ng/mL; half-life [1]: 3.14 h |
| Cn1cc(-c2cc(Oc3ccc(NC(=O)N4CCC5(CCCC5)C4=O)nc3)ccn2)cn1 [Compound 3] | 2.6 nM | 1620 nM | 1.1 nM | AUC [1]: 15800 ng·h/mL; bioavailability [1]: 89.5%; Cmax [1]: 3200 ng/mL; half-life [1]: 3.3 h |
| Cn1cc(-c2cc(Oc3ccc(NC(=O)N4CCC5(CCOCC5)C4=O)nc3)ccn2)cn1 [Compound 5] | – | – | 9.1 nM | – |
| Cn1cc(-c2cc(Oc3ccc(NC(=O)N4CCC5(CCCCC5(F)F)C4=O)nc3)ccn2)cn1 (stereo not shown) [Compound 6] | – | – | 5.4 nM | – |
| Cn1cc(-c2cc(Oc3ccc(NC(=O)N4CCC5(CCCO5)C4=O)nc3)ccn2)cn1 (stereo not shown) [Compound 7] | – | – | 2.7 nM | – |
| Cn1cc(-c2cc(Oc3ccc(NC(=O)N4CCC5(CCCC5(F)F)C4=O)nc3)ccn2)cn1 (stereo not shown) [Compound 8] | – | – | 2.3 nM | – |
| Cn1cc(-c2cc(Oc3ccc(NC(=O)N4CCC5(CCCCC5F)C4=O)nc3)ccn2)cn1 (stereo not shown) [Compound 9] | – | – | 2.1 nM | – |
| Cn1cc(-c2cc(Oc3ccc(NC(=O)N4CCC5(CC5)C4=O)nc3)ccn2)cn1 [Compound 10] | – | – | 0.55 nM | AUC [1]: 21300 ng·h/mL; bioavailability [1]: 64%; Cmax [1]: 2240 ng/mL; half-life [1]: 5.18 h; EC50 (FMS): 4 nM |
| Cn1cc(-c2cc(Oc3ccc(NC(=O)N4CCC5(CCNCC5)C4=O)nc3)ccn2)cn1 [Compound 11] | – | – | 300 nM | – |
| CC(=O)N1CCC2(CC1)CCN(C(=O)Nc1ccc(Oc3ccnc(-c4cnn(C)c4)c3)cn1)C2=O [Compound 12] | – | – | 171 nM | – |
| Cn1cc(-c2cc(Oc3ccc(NC(=O)N4CCC5(CCN(S(C)(=O)=O)CC5)C4=O)nc3)ccn2)cn1 [Compound 13] | – | – | 25 nM | – |
| CCc1nc(NC(=O)N2CCC3(CCC(F)(F)CC3)C2=O)ccc1Oc1ccnc(-c2cnn(C)c2)c1 [Compound 16] | – | – | 6.4 nM | – |
| Cn1cc(-c2cc(Oc3ccc(NC(=O)N4CCC5(CCCC(O)C5)C4=O)nc3)ccn2)cn1 (stereo not shown) [Compound 17] | – | – | 6.5 nM | – |
| CN1CCC(c2ccc(-c3cc(Oc4ccc(NC(=O)N5CCC6(CCC(F)(F)CC6)C5=O)nc4)ccn3)cc2)CC1 [Compound 22] | – | – | 6.7 nM | – |
| Cc1ncc(-c2cc(Oc3ccc(NC(=O)N4CCC5(CCC(F)(F)CC5)C4=O)nc3)ccn2)s1 [Compound 23] | – | – | 5.3 nM | – |

Now from value to compound, other results behind:

| IC50 (c-Kit) | IC50 (PDGFRβ) | SMILES | IC50 (CSF1R) | further results |
| --- | --- | --- | --- | --- |
| 16 nM | 783 nM | Cn1cc(-c2cc(Oc3ccc(NC(=O)N4CCC5(CCC(F)(F)CC5)C4=O)nc3)ccn2)cn1 [Compound 4] | – | IC50 (FLT-3): > 10000 nM; AUC [1]: 38800 ng·h/mL; bioavailability [1]: 100%; Cmax [1]: 5270 ng/mL; half-life [1]: 2.64 h |
| 17 nM | > 10000 nM | Cc1nc(NC(=O)N2CCC3(CCC(F)(F)CC3)C2=O)ccc1Oc1ccnc(-c2cnn(C)c2)c1 [Compound 14] | – | IC50 (FLT-3): > 10000 nM; AUC [1]: 20300 ng·h/mL; bioavailability [1]: 67.3%; Cmax [1]: 1400 ng/mL; half-life [1]: 5.91 h |
| 29 nM | > 10000 nM | Cc1nc(NC(=O)N2CCC3(CCC3)C2=O)ccc1Oc1ccnc(-c2cnn(C)c2)c1 [Compound 15] | – | IC50 (FLT-3): > 10000 nM |
| 8.4 nM | 343 nM | Cn1cc(-c2cc(Oc3ccc(NC(=O)N4CCC5(CCCC(F)(F)C5)C4=O)nc3)ccn2)cn1 (stereo not shown) [Compound 18] | – | IC50 (FLT-3): 8630 nM |
| 11 nM | 719 nM | Cn1cc(-c2cc(Oc3ccc(NC(=O)N4CCC5(CCC(=O)C5)C4=O)nc3)ccn2)cn1 (stereo not shown) [Compound 19] | – | IC50 (FLT-3): > 10000 nM |
| 10.1 nM | 7450 nM | O=C(Nc1ccc(Oc2ccnc(-c3cn[nH]c3)c2)cn1)N1CCC2(CCC(F)(F)CC2)C1=O [Compound 21] | – | – |
| 20 nM | – | Cn1cc(-c2cc(Oc3ccc(NC(=O)N4CCC5(CCCC(F)(F)C5)C4=O)nc3)ccn2)cn1 (stereo not shown) [Compound 24] | – | – |
| 5 nM | – | Cn1cc(-c2cc(Oc3ccc(NC(=O)N4CCC5(CCC(F)(F)C5)C4=O)nc3)ccn2)cn1 (stereo not shown) [Compound 25] | – | – |
| 4.5 nM | 2810 nM | Cn1cc(-c2cc(Oc3ccc(NC(=O)N4CCC5(CC(F)(F)C5)C4=O)nc3)ccn2)cn1 [Compound 26] | – | IC50 (FLT-3): > 10000 nM; AUC [1]: 48300 ng·h/mL; bioavailability [1]: 79%; Cmax [1]: 4490 ng/mL; half-life [1]: 6.72 h |
